Data published in patent US6924288B2, “Enantiomerically pure opioid diarylmethylpiperzine and methods of using same” (priority 2001, dated 2005).

Assays:
[1] = biological target: T1, δ opioid receptor (Rattus norvegicus, UniProt P33533); assay: Radioligand binding, [3H]Deltorphin II competition, rat brain membranes; conditions: read-out: Rat Brain Membrane K1 (nM) δ
T1 construct: tissue Pel-Freeze Biological Inc. (Rogers, Ark.); host or cells: rat whole brain membranes
Method: (§1) Two stereoisomerically related racemic mixtures and inclusive enantiomers were evaluated for in vitro opioid receptor affinity in rat brain membranes (μ and δ opioid) and guinea pig cerebellum (κ opioid receptor). Membranes for radioligand binding were prepared from either rat whole brain or guinea pig cerebellum, supplied by Pel-Freeze Biological Inc. (Rogers, Ark.). Tissues were homogenized in 50 mM TRIS (Tris[hydrooxymethyl]aminomethane) buffer (pH 7.4) containing 50 ug/ml soybean trypsin inhibitor, 1 mM EDTA (Ethylenediaminetetraacetic acid), and 100 μM PMSF (Phenylmethylsulfonyl fluoride). The homogenized brain tissues were centrifuged at 500×g for 30 minutes (4° C.) to remove large debris. The supernatant was polytronically sonicated for 10 seconds (P.E. setting of 2, 4° C.). Sucrose solution was then added to a final concentration of 0.35 M using a 10 mM TRIS-Sucrose buffer (pH 7.4) and the brain membranes were then centrifuged at 40,000×g for 30 minutes (4° C.). The membrane pellets were then washed twice in 10 mM TRIS buffer (pH 7.4) containing 50 μg/ml soybean trypsin inhibitor, 1 mM EDTA, and 100 μM PMSF.
(§2) Radioligand binding assays were performed in 10 mM TRIS buffer (pH 7.4) containing 50 μg/ml soybean trypsin inhibitor, 1 mM EDTA, 5 mM MgCl2, and 100 μM PMSF. Tritium-labeled DAMGO (μ), Deltorphin II (δ), or U69593 (κ) purchased from New England Nuclear were used as ligands in competitive experiments (2-3×10^−10 M final concentrations) with non-specific binding defined by 0.5×10^−6 M Naloxone (purchased from SIGMA Chemical Co.). All binding assays were run at room temperature for 90 minutes and then terminated by rapid filtration on GF/C glass fiber filters (Whatman, Hillsboro, Oreg.) with 50 mM TRIS buffer (4° C., pH 7.4) employing a Brandel Semi-automatic Cell Harvester (Model M48, Brandel, Gaithersburg, Md.). The filters were washed twice with 50 mM TRIS buffer (4° C., pH 7.4) and the filters were placed in liquid scintillation cocktail and the bound radioactivity counted on a Beckman LS 6500 scintillation counter. The potency of the compounds in inhibiting the binding of radiolabelled DAMGO (μ), Deltorphin II (δ), or U69593 (κ) was determined from full concentration-effect curves. With the computer program Prism (GraphPad Software Inc., San Diego, Calif.) the IC50 values were determined using a one-site nonlinear regression analysis of the radioligand binding data. The IC50 values were then converted to Ki values using the Cheng-Prusoff equation. (Cheng Y and Prusoff W H (1973) Relationship between the inhibition constant (K1) and the concentration of inhibitor which causes 50 percent inhibition (I50) of a enzymatic reaction. Biochem Pharm 22:3099-3108.)

[2] = biological target: T2, κ opioid receptor (Cavia porcellus, UniProt P41144); assay: Radioligand binding, [3H]U69593 competition, guinea pig cerebellum membranes; conditions: read-out: Guinea Pig Brain Membrane K1 (nM) κ
T2 construct: tissue Pel-Freeze Biological Inc. (Rogers, Ark.); host or cells: guinea pig cerebellum membranes
Method: as §1, §2

[3] = biological target: T3, μ opioid receptor (Rattus norvegicus, UniProt P33535); assay: Radioligand binding, [3H]DAMGO competition, rat brain membranes
T3 construct: tissue Pel-Freeze Biological Inc. (Rogers, Ark.); host or cells: rat whole brain membranes
Method: as §1, §2

[4] = biological target: T4, Mu receptor, mouse vas deferens (Mus musculus, UniProt P42866); assay: Mouse vas deferens, inhibition of electrically induced contractions, mu (with TIPP and nor-BNI); type: cell-based; conditions: in presence of 3 μM TIPP and 15 nM nor-BNI; read-out: Mouse Vas Deferens ED50 (nM) μ
T4 construct: Mouse vasa deferentia (MVD), CD-1 strain, Harlan, Raleigh, N.C.) were removed from mice; tissue Harlan, Raleigh, N.C; (animals); host or cells: mouse vas deferens, CD-1 strain

**Q.** Which Ki [1] does the source give for `C=CCN1C[C@H](C)N([C@H](c2ccsc2)c2cccc(O)c2)C[C@H]1C` [Compound 2, (−)3-((S)-((2S,5R)-4-allyl-2,5-dimethyl-1-piperazinyl)(3-thienyl)methyl)phenol] here?
**A.** 0.88 nM

**Q.** What about the Ki [2] of the same compound?
**A.** 1.77 nM

**Q.** What about the “K1 relative to the K1 of its enantiomer DPI-165” value ([3]; mu and delta receptor binding) of the same compound?
**A.** approximately 1/1000

**Q.** And the Ki ([3]; rat brain membranes, [3H]DAMGO, read-out: Rat Brain Membrane K1 (nM) μ)?
**A.** 0.4 nM

**Q.** And the EC50 [4]?
**A.** 38.8 nM
